Assay results reported in ChEMBL document CHEMBL5104178, “Nitroimidazopyrazinones with Oral Activity against Tuberculosis and Chagas Disease in Mouse Models of Infection” (J Med Chem, 2022).
In brackets after ≈: the same amount, converted by molar mass.

Columns and labels:
[1] = system: Mycobacterium avium; experiment: Antimycobacterial activity against Mycobacterium avium ATCC 25291 assessed as bacterial growth inhibition incubated for 6 days under normoxic condition by resazurin microtiter assay; type: functional; details: ATCC 25291, 144 h, time 6 day
[2] = system: Mycolicibacterium smegmatis; experiment: Antimycobacterial activity against Mycobacterium smegmatis mc2155 ATCC 700084 assessed as bacterial growth inhibition incubated for 24 hrs under normoxic condition by resazurin microtiter assay; type: functional
[3] = AUC (0 to last) in CD-1 mouse at 25 mg/kg, po measured upto 48 hrs by LC/MS/MS analysis; type: ADME, organism-based; parameters: dose 25 mg/kg, time < 48 hrs, route po; details: in vivo
[4] = Oral bioavailability in CD-1 mouse at 25 mg/kg measured upto 48 hrs by LC/MS/MS analysis; type: ADME, organism-based; details: in vivo
[5] = system: Mycobacterium tuberculosis; experiment: Substrate activity at Mycobacterium tuberculosis Ddn expressed in Escherichia coli BL21 (DE3) assessed as oxidation of F420H2 by measuring Kcat/Km by spectrophotometric analysis
[6] = Volume of distribution at steady state in CD-1 mouse at 10 mg/kg, iv measured upto 48 hrs by LC/MS/MS analysis; type: ADME, organism-based; details: in vivo, read-out: Vdss
[7] = Clearance in CD-1 mouse at 10 mg/kg, iv measured upto 48 hrs by LC/MS/MS analysis; type: ADME, organism-based; details: in vivo
[8] = system: Mycobacterium tuberculosis; experiment: Substrate activity at Mycobacterium tuberculosis Ddn expressed in Escherichia coli BL21 (DE3) assessed as oxidation of F420H2 by measuring Kcat by spectrophotometric analysis
[9] = Half life in CD-1 mouse at 25 mg/kg, po measured upto 48 hrs by LC/MS/MS analysis; type: ADME, organism-based; details: in vivo
[10] = system: Mycobacterium tuberculosis; experiment: Substrate activity at Mycobacterium tuberculosis Ddn expressed in Escherichia coli BL21 (DE3) assessed as oxidation of F420H2 by measuring Km by spectrophotometric analysis
[11] = system: Mycobacterium tuberculosis; experiment: Antimycobacterial activity against Mycobacterium tuberculosis H37Ra ATCC 25177 assessed as bacterial growth inhibition incubated for 6 days under normoxic condition by resazurin microtiter assay; type: functional; details: H37Ra ATCC 25177, 144 h, time 6 day
[12] = Tmax in CD-1 mouse at 25 mg/kg, po measured upto 48 hrs by LC/MS/MS analysis; type: ADME, organism-based; details: in vivo
[13] = Cmax in CD-1 mouse at 25 mg/kg, po measured upto 48 hrs by LC/MS/MS analysis; type: ADME, organism-based; parameters: time < 48 hrs, dose 25 mg/kg, route po; details: in vivo
[14] = Half life in CD-1 mouse at 10 mg/kg, iv measured upto 48 hrs by LC/MS/MS analysis; type: ADME, organism-based; details: in vivo
[15] = Clearance in CD-1 mouse at 5 mg/kg, iv administered as DMSO/PEG400 formulation measured upto 24 hrs by LC-MS/MS analysis; type: ADME, organism-based; details: in vivo
[16] = Volume of distribution at steady state in CD-1 mouse at 5 mg/kg, iv administered as DMSO/PEG400 formulation measured upto 24 hrs by LC-MS/MS analysis; type: ADME, organism-based; details: in vivo, read-out: Vdss
[17] = Half life in CD-1 mouse at 5 mg/kg, iv administered as DMSO/PEG400 formulation measured upto 24 hrs by LC-MS/MS analysis; type: ADME, organism-based; details: in vivo
[18] = Oral bioavailability in CD-1 mouse at 20 mg/kg administered as DMSO/PEG400 formulation measured upto 24 hrs by LC-MS/MS analysis; type: ADME, organism-based; details: in vivo
[19] = AUC(0 to 24 hrs) in CD-1 mouse at 20 mg/kg, po administered as DMSO/PEG400 formulation measured upto 24 hrs by LC-MS/MS analysis; type: ADME, organism-based; parameters: dose 20 mg/kg, time < 24 hrs, route po; details: in vivo
[20] = Half life in CD-1 mouse at 20 mg/kg, po administered as DMSO/PEG400 formulation measured upto 24 hrs by LC-MS/MS analysis; type: ADME, organism-based; details: in vivo
[21] = Cmax in CD-1 mouse at 20 mg/kg, po administered as DMSO/PEG400 formulation measured upto 24 hrs by LC-MS/MS analysis; type: ADME, organism-based; parameters: dose 20 mg/kg, time < 24 hrs, route po; details: in vivo
[22] = Tmax in CD-1 mouse at 20 mg/kg, po administered as DMSO/PEG400 formulation measured upto 24 hrs by LC-MS/MS analysis; type: ADME, organism-based; details: in vivo
[23] = system: Mycobacterium tuberculosis; experiment: Antimycobacterial activity against Mycobacterium tuberculosis H37Rv ATCC 27294 assessed as bacterial growth inhibition incubated for 5 days under hypoxic condition by resazurin microtiter assay; type: functional; details: H37Rv ATCC 27294, 120 h, time 5 day
[24] = Solubility of compound in PBS at 7.4 by LC-UV analysis; type: physicochemical; details: pH 7.4
[25] = Solubility of compound in water by LC-UV analysis; type: physicochemical
[26] = system: Mycobacterium tuberculosis; experiment: Antimycobacterial activity against Mycobacterium tuberculosis H37Rv ATCC 27294 assessed as bacterial growth inhibition incubated for 5 days under normoxic condition by resazurin microtiter assay; type: functional; details: H37Rv ATCC 27294, 120 h, time 5 day
[27] = AUC(0 to 8 hrs) in CD-1 mouse at 20 mg/kg, po administered as DMSO/PEG400/Cremophor RH40/water formulation measured upto 24 hrs by LC-MS/MS analysis; type: ADME, organism-based; parameters: time < 24 hrs, dose 20 mg/kg, route po; details: in vivo
[28] = Clearance in CD-1 mouse at 5 mg/kg, iv administered as DMSO/PEG400/Cremophor RH40/water formulation measured upto 24 hrs by LC-MS/MS analysis; type: ADME, organism-based; details: in vivo
[29] = Volume of distribution at steady state in CD-1 mouse at 5 mg/kg, iv administered as DMSO/PEG400/Cremophor RH40/water formulation measured upto 24 hrs by LC-MS/MS analysis; type: ADME, organism-based; details: in vivo, read-out: Vdss
[30] = Cmax in CD-1 mouse at 20 mg/kg, po administered as DMSO/PEG400/Cremophor RH40/water formulation measured upto 24 hrs by LC-MS/MS analysis; type: ADME, organism-based; parameters: dose 20 mg/kg, time < 24 hrs, route po; details: in vivo
[31] = Oral bioavailability in CD-1 mouse at 20 mg/kg administered as DMSO/PEG400/Cremophor RH40/water formulation measured upto 24 hrs by LC-MS/MS analysis; type: ADME, organism-based; details: in vivo
[32] = Tmax in CD-1 mouse at 20 mg/kg, po administered as DMSO/PEG400/Cremophor RH40/water formulation measured upto 24 hrs by LC-MS/MS analysis; type: ADME, organism-based; details: in vivo
[33] = Half life in CD-1 mouse at 20 mg/kg, po administered as DMSO/PEG400/Cremophor RH40/water formulation measured upto 24 hrs by LC-MS/MS analysis; type: ADME, organism-based; details: in vivo
[34] = Half life in CD-1 mouse at 5 mg/kg, iv administered as DMSO/PEG400/Cremophor RH40/water formulation measured upto 24 hrs by LC-MS/MS analysis; type: ADME, organism-based; details: in vivo

Structure (SMILES): O=[N+]([O-])c1cn2c(n1)OC[C@@H](OCc1ccc(OC(F)(F)F)cc1)C2 [PRETOMANID]
- MIC [1]: > 32 µg/mL
- MIC [2]: > 32 µg/mL
- AUC(0-t) at 48 h [3]: 50900 ng·h/mL
- bioavailability [4]: 100%
- kcat/Km [5]: 1260 M⁻¹ s⁻¹
- Vd [6]: 1.6 L/kg
- clearance [7]: 12.1 mL/min/kg
- kcat [8]: 9.3 10^-3/s
- half-life [9]: 162 min
- Km [10]: 7.3 µM
- MIC [11]: ≤ 0.016 µg/mL
- Tmax [12]: 2 h
- Cmax [13]: 6000 ng/mL
- half-life [14]: 96 min

Structure (SMILES): Cc1ccc(Cn2ccn3cc([N+](=O)[O-])nc3c2=O)cc1
- kcat/Km [5]: 1710 M⁻¹ s⁻¹
- kcat [8]: 4.3 10^-3/s
- Km [10]: 2.5 µM

Structure (SMILES): O=c1c2nc([N+](=O)[O-])cn2ccn1Cc1ccc(-c2cccc(OC(F)(F)F)c2)cc1
- kcat/Km [5]: 370 M⁻¹ s⁻¹
- kcat [8]: 3.1 10^-3/s
- Km [10]: 8.4 µM

Structure (SMILES): O=c1c2nc([N+](=O)[O-])cn2ccn1Cc1ccc(-c2ccc(OC(F)(F)F)cc2)cn1
- clearance [15]: 2.06 mL/min/kg
- Vd [16]: 1.3 L/kg
- half-life [17]: 432 min
- bioavailability [18]: 45%
- AUC(0-t) at 24 h [19]: 45900 ng·h/mL
- half-life [20]: 366 min
- Cmax [21]: 3600 ng/mL
- Tmax [22]: 5.3 h

Structure (SMILES): NNC(=O)c1ccncc1 [ISONIAZID]
- MIC [1]: > 32 µg/mL
- MIC [2]: > 32 µg/mL
- MIC [11]: 0.031 µg/mL (≈ 0.226 µM)

Structure (SMILES): Cc1c(C)n2cc([N+](=O)[O-])nc2c(=O)n1Cc1ccc(OC(F)(F)F)cc1
- MIC [1]: > 32 µg/mL
- MIC [2]: > 32 µg/mL
- kcat/Km [5]: 244 M⁻¹ s⁻¹
- kcat [8]: 6.9 10^-3/s
- Km [10]: 28 µM

Structure (SMILES): O=C(NCc1ccc(OC(F)(F)F)cc1)c1ncc([N+](=O)[O-])[nH]1
- kcat/Km [5]: 6.9 M⁻¹ s⁻¹
- kcat [8]: 2.1 10^-4/s
- Km [10]: 31 µM

Structure (SMILES): O=C1CCn2cc([N+](=O)[O-])nc2N1Cc1ccccc1
- MIC [23]: > 32 µg/mL
- solubility [24]: 142 µM (≈ 38.7 µg/mL)
- solubility ([25]; water, read-out: solubility): 137 µM (≈ 37.3 µg/mL)
- MIC [26]: > 32 µg/mL

Structure (SMILES): Cc1nc(OCc2ccc(OC(F)(F)F)cc2)c2nc([N+](=O)[O-])cn2c1C
- MIC [1]: > 32 µg/mL
- MIC [23]: > 32 µg/mL
- MIC [2]: > 32 µg/mL
- kcat/Km [5]: 24 M⁻¹ s⁻¹
- kcat [8]: 7 10^-4/s
- Km [10]: 30 µM
- MIC [11]: > 32 µg/mL
- MIC [26]: > 32 µg/mL

Structure (SMILES): O=c1[nH]c(-c2ccccc2)cn2cc([N+](=O)[O-])nc12
- AUC(0-t) at 24 h [27]: 88300 ng·h/mL
- MIC [1]: > 32 µg/mL
- MIC [23]: > 32 µg/mL
- MIC [2]: > 32 µg/mL
- clearance [28]: 3.38 mL/min/kg
- Vd [29]: 0.34 L/kg
- kcat/Km [5]: 8.1 M⁻¹ s⁻¹
- solubility ([25]; buffer): 27 µM (≈ 6.92 µg/mL)
- kcat [8]: 1.3 10^-3/s
- Cmax [30]: 13000 ng/mL
- bioavailability [31]: 87%
- Km [10]: 164 µM
- MIC [11]: > 32 µg/mL
- Tmax [32]: 2 h
- half-life [33]: 192 min
- MIC [26]: > 32 µg/mL
- half-life [34]: 72 min
